From ChEMBL document CHEMBL4706653, “Ultra-short lipopeptides against gram-positive bacteria while alleviating antimicrobial resistance” (Eur J Med Chem, 2021)
≈ marks a conversion by molar mass, not a printed value. Residues, ends and D or L forms follow the SMILES beside them. *: point of attachment. Stearoyl = CCCCCCCCCCCCCCCCCC(=O)*; Palmitoyl = CCCCCCCCCCCCCCCC(=O)*; Myristoyl = CCCCCCCCCCCCCC(=O)*; Lauroyl = CCCCCCCCCCCC(=O)*; Decanoyl = CCCCCCCCCC(=O)*; Octanoyl = CCCCCCCC(=O)*

Columns and labels:
Staphylococcus aureus [1] = test: Antimicrobial activity against Staphylococcus aureus ATCC 29213 after 18 hrs by broth microdilution method; format: functional
Staphylococcus aureus [2] = test: Antimicrobial activity against methicillin-resistant Staphylococcus aureus 113 after 18 hrs by broth microdilution method; format: functional
[3] = test system: Staphylococcus epidermidis; test: Antimicrobial activity against Staphylococcus epidermidis ATCC 12228 after 18 hrs by broth microdilution method; format: functional
Staphylococcus aureus [4] = test: Antimicrobial activity against methicillin-resistant Staphylococcus aureus 75 after 18 hrs by broth microdilution method; format: functional
[5] = Therapeutic index, ratio of MHC for mouse RBC to geometric mean of peptide MIC for Staphylococcus epidermidis ATCC 12228; format: toxicity; conditions: pooled result: one value given for 6 cell lines, strains, targets or settings, read-out: TI
Bacillus subtilis = test: Antimicrobial activity against Bacillus subtilis ATCC 23857 after 18 hrs by broth microdilution method; format: functional
Erythrocyte = test: Hemolytic activity against mouse erythrocytes measured after 1 hr; format: ADME, cell-based
Staphylococcus aureus [6] = test: Antimicrobial activity against Staphylococcus aureus ATCC 25923 after 18 hrs by broth microdilution method; format: functional

SMILES	MIC (Staphylococcus aureus [1]) [µM]	MIC (Staphylococcus aureus [2]) [µM]	MIC [3] [µM]	MIC (Staphylococcus aureus [4]) [µM]	selectivity ratio [5]	MIC (Bacillus subtilis) [µM]	MHC10 (Erythrocyte) [µM]	MIC (Staphylococcus aureus [6]) [µM]
CCCCCCCCCCCCCCCC(=O)N[C@@H](CCCNC(=N)N)C(=O)N[C@@H](CCCNC(=N)N)C(=O)N[C@@H](CCCNC(=N)N)C(N)=O (Palmitoyl-Arg-Arg-Arg-NH2)	32 (≈ 23.2 µg/mL)	2 (≈ 1.45 µg/mL)	8 (≈ 5.79 µg/mL)	8 (≈ 5.79 µg/mL)	5.83	8 (≈ 5.79 µg/mL)	64	8 (≈ 5.79 µg/mL)
CCCCCCCCCC(=O)N[C@@H](CCCNC(=N)N)C(=O)N[C@@H](Cc1c[nH]c2ccccc12)C(=O)N[C@@H](Cc1c[nH]c2ccccc12)C(N)=O (Decanoyl-Arg-Trp-Trp-NH2)	16 (≈ 11.2 µg/mL)	8 (≈ 5.6 µg/mL)	32 (≈ 22.4 µg/mL)	8 (≈ 5.6 µg/mL)	27.4	16 (≈ 11.2 µg/mL)	> 256	32 (≈ 22.4 µg/mL)
CCCCCCCCCCCC(=O)N[C@@H](CCCNC(=N)N)C(=O)N[C@@H](Cc1c[nH]c2ccccc12)C(=O)N[C@@H](Cc1c[nH]c2ccccc12)C(N)=O (Lauroyl-Arg-Trp-Trp-NH2)	64 (≈ 46.6 µg/mL)	8 (≈ 5.82 µg/mL)	64 (≈ 46.6 µg/mL)	8 (≈ 5.82 µg/mL)	12.8	64 (≈ 46.6 µg/mL)	> 256	32 (≈ 23.3 µg/mL)
CCCCCCCCCCCCCCCC(=O)N[C@@H](Cc1c[nH]c2ccccc12)C(=O)N[C@@H](CCCNC(=N)N)C(=O)N[C@@H](CCCNC(=N)N)C(N)=O (Palmitoyl-Trp-Arg-Arg-NH2)	8 (≈ 6.03 µg/mL)	8 (≈ 6.03 µg/mL)	8 (≈ 6.03 µg/mL)	8 (≈ 6.03 µg/mL)	4	8 (≈ 6.03 µg/mL)	32	8 (≈ 6.03 µg/mL)
CCCCCCCC(=O)N[C@@H](CCCNC(=N)N)C(=O)N[C@@H](Cc1c[nH]c2ccccc12)C(=O)N[C@@H](CCCNC(=N)N)C(N)=O (Octanoyl-Arg-Trp-Arg-NH2)	128 (≈ 82.2 µg/mL)	128 (≈ 82.2 µg/mL)	128 (≈ 82.2 µg/mL)	128 (≈ 82.2 µg/mL)	3.69	64 (≈ 41.1 µg/mL)	> 256	> 128
CCCCCCCC(=O)N[C@@H](CCCNC(=N)N)C(=O)N[C@@H](Cc1c[nH]c2ccccc12)C(=O)N[C@@H](Cc1c[nH]c2ccccc12)C(N)=O (Octanoyl-Arg-Trp-Trp-NH2)	16 (≈ 10.7 µg/mL)	32 (≈ 21.5 µg/mL)	16 (≈ 10.7 µg/mL)	8 (≈ 5.37 µg/mL)	29.5	16 (≈ 10.7 µg/mL)	> 256	16 (≈ 10.7 µg/mL)
CCCCCCCCCCCC(=O)N[C@@H](Cc1c[nH]c2ccccc12)C(=O)N[C@@H](CCCNC(=N)N)C(=O)N[C@@H](CCCNC(=N)N)C(N)=O (Lauroyl-Trp-Arg-Arg-NH2)	8 (≈ 5.58 µg/mL)	4 (≈ 2.79 µg/mL)	8 (≈ 5.58 µg/mL)	8 (≈ 5.58 µg/mL)	8.73	8 (≈ 5.58 µg/mL)	64	8 (≈ 5.58 µg/mL)
CCCCCCCCCC(=O)N[C@@H](CCCNC(=N)N)C(=O)N[C@@H](CCCNC(=N)N)C(=O)N[C@@H](CCCNC(=N)N)C(N)=O (Decanoyl-Arg-Arg-Arg-NH2)	128 (≈ 81.9 µg/mL)	128 (≈ 81.9 µg/mL)	64 (≈ 41 µg/mL)	128 (≈ 81.9 µg/mL)	5.05	32 (≈ 20.5 µg/mL)	> 256	128 (≈ 81.9 µg/mL)
CCCCCCCCCCCCCC(=O)N[C@@H](CCCNC(=N)N)C(=O)N[C@@H](CCCNC(=N)N)C(=O)N[C@@H](Cc1c[nH]c2ccccc12)C(N)=O (Myristoyl-Arg-Arg-Trp-NH2)	4 (≈ 2.9 µg/mL)	2 (≈ 1.45 µg/mL)	8 (≈ 5.81 µg/mL)	2 (≈ 1.45 µg/mL)	6	8 (≈ 5.81 µg/mL)	32	8 (≈ 5.81 µg/mL)
CCCCCCCCCCCCCCCC(=O)N[C@@H](CCCNC(=N)N)C(=O)N[C@@H](Cc1c[nH]c2ccccc12)C(=O)N[C@@H](CCCNC(=N)N)C(N)=O (Palmitoyl-Arg-Trp-Arg-NH2)	16 (≈ 12.1 µg/mL)	4 (≈ 3.02 µg/mL)	8 (≈ 6.03 µg/mL)	8 (≈ 6.03 µg/mL)	7.38	8 (≈ 6.03 µg/mL)	64	8 (≈ 6.03 µg/mL)
CCCCCCCCCCCC(=O)N[C@@H](CCCNC(=N)N)C(=O)N[C@@H](Cc1c[nH]c2ccccc12)C(=O)N[C@@H](CCCNC(=N)N)C(N)=O (Lauroyl-Arg-Trp-Arg-NH2)	8 (≈ 5.58 µg/mL)	4 (≈ 2.79 µg/mL)	8 (≈ 5.58 µg/mL)	4 (≈ 2.79 µg/mL)	8	8 (≈ 5.58 µg/mL)	64	16 (≈ 11.2 µg/mL)
CCCCCCCCCCCCCCCCCC(=O)N[C@@H](CCCNC(=N)N)C(=O)N[C@@H](CCCNC(=N)N)C(=O)N[C@@H](CCCNC(=N)N)C(N)=O (Stearoyl-Arg-Arg-Arg-NH2)	4 (≈ 3.01 µg/mL)	2 (≈ 1.5 µg/mL)	8 (≈ 6.02 µg/mL)	4 (≈ 3.01 µg/mL)	4	8 (≈ 6.02 µg/mL)	32	4 (≈ 3.01 µg/mL)
